ChEMBL document CHEMBL4196157, “Inhibition of Herpes Simplex Virus-1 Entry into Human Cells by Nonsaccharide Glycosaminoglycan Mimetics” (ACS Med Chem Lett, 2018)
Calls of active or inactive are those of the source. The calls are words filed in the database; no cut-off is given here.

Tests used:
Human alphaherpesvirus 1 [1] = assay: (§1) Binding affinity to recombinant HSV1 glycoprotein D (21 to 339 residues) assessed as change in intrinsic tryptophan fluorescence by spectrofluorimetric method
[2] = as §1; parameters: species or system Human alphaherpesvirus 1
Human alphaherpesvirus 1 [3] = assay: Antiviral activity against Herpes simplex virus 1 KOS infected in African green monkey Vero cells assessed as inhibition of plaque formation at 5 ug treated 1 hr prior to viral infection followed by compound washout and subsequent compound addition measured after 72 hrs by Giemsa staining based assay; assay type: functional, organism-based
[4] = Binding affinity to HSV1 glycoprotein D; parameters: species or system Human alphaherpesvirus 1

%max (Human alphaherpesvirus 1 [1])	Kd [2]	Kd [4]	SMILES	inhibition (Human alphaherpesvirus 1 [3])
87%	0.026 µM	–	CC1OC[C@H]2O[C@H](OC(=O)c3cc(OS(=O)(=O)O)cc(OS(=O)(=O)O)c3)[C@H](OC(=O)c3cc(OS(=O)(=O)O)cc(OS(=O)(=O)O)c3)[C@@H](OC(=O)c3cc(OS(=O)(=O)O)cc(OS(=O)(=O)O)c3)[C@@H]2O1 (stereo partly drawn)	–
–	–	–	Nc1nc2c(ncn2COCCO)c(=O)[nH]1	Active
-85%	0.5 µM	–	CO[C@H]1O[C@H](COS(=O)(=O)O)[C@@H](O[C@@H]2O[C@@H](C(=O)O)[C@@H](O[C@H]3O[C@H](COS(=O)(=O)O)[C@@H](O[C@@H]4O[C@H](C(=O)O)[C@@H](O[C@H]5O[C@H](COS(=O)(=O)O)[C@@H](O)[C@H](O)[C@H]5NS(=O)(=O)O)[C@H](O)[C@H]4O)[C@H](OS(=O)(=O)O)[C@H]3NS(=O)(=O)O)[C@H](O)[C@H]2OS(=O)(=O)O)[C@H](O)[C@H]1NS(=O)(=O)O [FONDAPARINUX SODIUM]	–
-112%	2.22 µM	–	CCOC(=O)c1c(C)oc2cc(OCc3cccc(OS(=O)(=O)O)c3)c(OCc3oc4cc(OC)c(OS(=O)(=O)O)cc4c3C(=O)OCC)cc12	–
–	–	18 µM	O=C(O)C1=C[C@H](O)[C@@H](OS(=O)(=O)O)[C@H](O[C@H]2[C@H](O)[C@@H](NS(=O)(=O)O)[C@@H](O[C@H]3[C@H](O)[C@@H](OS(=O)(=O)O)[C@H](O[C@H]4[C@H](O)[C@@H](NS(=O)(=O)O)[C@@H](O[C@H]5[C@H](O)[C@@H](OS(=O)(=O)O)[C@H](O[C@H]6[C@H](OS(=O)(=O)O)[C@@H](NS(=O)(=O)O)[C@@H](O[C@H]7[C@H](O)[C@@H](OS(=O)(=O)O)[C@H](O[C@H]8[C@H](O)[C@@H](NS(=O)(=O)O)[C@@H](O)O[C@@H]8COS(=O)(=O)O)O[C@H]7C(=O)O)O[C@@H]6COS(=O)(=O)O)O[C@H]5C(=O)O)O[C@@H]4COS(=O)(=O)O)O[C@H]3C(=O)O)O[C@@H]2COS(=O)(=O)O)O1	–
53%	0.008 µM	–	O=C(O[C@@H]1[C@@H](OC(=O)c2cc(OS(=O)(=O)O)cc(OS(=O)(=O)O)c2)[C@H](OC(=O)c2cc(OS(=O)(=O)O)cc(OS(=O)(=O)O)c2)[C@@H](OC(=O)c2ccc(OS(=O)(=O)O)cc2OS(=O)(=O)O)[C@H](OC(=O)c2cc(OS(=O)(=O)O)cc(OS(=O)(=O)O)c2)[C@H]1OC(=O)c1cc(OS(=O)(=O)O)cc(OS(=O)(=O)O)c1)c1cc(OS(=O)(=O)O)cc(OS(=O)(=O)O)c1	–
-157%	0.78 µM	–	CCOC(=O)c1c(C)oc2cc(OCc3ccccc3)c(OCCCOc3cc(OS(=O)(=O)O)cc4oc(-c5ccc(OS(=O)(=O)O)cc5)cc(=O)c34)cc12	–
-82%	0.022 µM	–	Cc1cc(Oc2cc3c(=O)c(OS(=O)(=O)O)c(-c4ccc(OS(=O)(=O)O)c(OS(=O)(=O)O)c4)oc3cc2OS(=O)(=O)O)c(C)cc1COc1cc(OS(=O)(=O)O)cc2oc(-c3ccc(OS(=O)(=O)O)c(OS(=O)(=O)O)c3)c(OS(=O)(=O)O)c(=O)c12	–
328%	0.112 µM	–	O=C(OC1[C@@H](OC(=O)c2cc(OS(=O)(=O)O)cc(OS(=O)(=O)O)c2)[C@@H](OC(=O)c2ccc(OS(=O)(=O)O)cc2OS(=O)(=O)O)C(OC(=O)c2cc(OS(=O)(=O)O)cc(OS(=O)(=O)O)c2)[C@H](OC(=O)c2cc(OS(=O)(=O)O)cc(OS(=O)(=O)O)c2)[C@H]1OC(=O)c1cc(OS(=O)(=O)O)cc(OS(=O)(=O)O)c1)c1cc(OS(=O)(=O)O)cc(OS(=O)(=O)O)c1 (single isomer, unassigned)	–
-52%	0.15 µM	–	O=S(=O)(O)OC[C@H]1O[C@@](COS(=O)(=O)O)(O[C@@H]2O[C@H](COS(=O)(=O)O)[C@@H](OS(=O)(=O)O)[C@H](OS(=O)(=O)O)[C@H]2OS(=O)(=O)O)[C@@H](OS(=O)(=O)O)[C@@H]1OS(=O)(=O)O	–
